Measured values from patent US12370188B2, “Formulations of dazucorilant, a glucocorticoid receptor modulator” (Corcept Therapeutics Incorporated, priority 2022, dated 2025).

Test: Solubility of Compound I in water
Type: physicochemical
From the text: Compositions prepared by routine methods, even if able to solubilize small amounts of Compound I, have proven unstable with Compound I falling out of solution, or in which Compound I is found to be subject to rapid degradation, or incompatible with a pharmaceutically acceptable capsule.

Which solubility in water does the source give for O=C(c1ccccn1)[C@]12Cc3cnn(-c4ccc(F)cc4)c3C=C1CCN(S(=O)(=O)c1ccc(C(F)(F)F)cc1)C2 [Compound I, (R)-(1-(4-fluorophenyl)-6-((4-(trifluoromethyl)phenyl)sulfonyl)-4,4a,5,6,7,8-hexahydro-1H-pyrazolo[3,4-g]isoquinolin-4a-yl)(pyridin-2-yl)methanone] here?
Its solubility in water is “practically insoluble”.
